In patent US12145944B2, “Imidazopyrimidines as EED inhibitors and the use thereof” (THE REGENTS OF THE UNIVERSITY OF MICHIGAN, priority 2019, dated 2024):
Where two headings read alike, the source gives them in different places.

Experiments:
[1] = tested on: KARPAS422 human B cell lymphoma cell; assay: Cell proliferation, KARPAS422, 7 day treatment (WST-8); assay type: cell-based
In short: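 KARPAS422 cells seeded at 2 000-3 000 cells/well and exposed to serially diluted compounds for 7 days at 37 °C, 5% CO2. Growth measured by WST-8 (1-4 h, absorbance 450 nm). Readings normalized to DMSO-treated cells; IC50 from nonlinear regression.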

EED (1-441)-His protein = target: T1, EED (1-441)-His protein (Homo sapiens, UniProt O75530); assay: EED-H3K27Me3 peptide competition binding assay by AlphaScreen; conditions: EED Alpha screen binding assay; read-out: Alpha screen
T1 construct: 20 nM EED (1-441)-His protein
T1 sequence (O75530 whole entry): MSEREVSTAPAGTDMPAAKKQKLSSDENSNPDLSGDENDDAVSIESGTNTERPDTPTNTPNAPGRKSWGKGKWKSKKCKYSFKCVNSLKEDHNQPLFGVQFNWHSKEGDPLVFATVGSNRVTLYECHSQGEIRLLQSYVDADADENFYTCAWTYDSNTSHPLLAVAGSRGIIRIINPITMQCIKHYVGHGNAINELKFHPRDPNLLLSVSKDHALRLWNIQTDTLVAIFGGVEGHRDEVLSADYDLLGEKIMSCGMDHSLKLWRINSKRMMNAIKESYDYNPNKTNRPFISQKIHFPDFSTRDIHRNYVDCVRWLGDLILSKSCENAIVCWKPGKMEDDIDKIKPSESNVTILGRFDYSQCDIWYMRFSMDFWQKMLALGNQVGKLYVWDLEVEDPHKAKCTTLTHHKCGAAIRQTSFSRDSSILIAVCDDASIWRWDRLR
Protocol: “N/A” stands for “not assessed”.
EED-H3K27Me3 peptide competition binding assay by AlphaScreen (α-screen)
2.5 μl of solutions containing 20 nM biotin-H3K27Me3 (19-33) peptide in the buffer (25 mM HEPES, pH 8, 0.02% Tween-20, 0.5% BSA) were added to the wells and then incubated with compound for 30 min. […] Then 10 μl of the detection beads mix was added to the plate and incubated in the dark at RT for 1 h. The final concentration of donor and acceptor beads was 10 μg/ml for each. […] The data were then fit to a dose response equation to get the IC50 values.

Pfeiffer cell line = assay: Anti-proliferative activity, Pfeiffer cell line, 7 day treatment; assay type: cell-based; conditions: Homo sapiens, 168 h
In short: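 Cells seeded at 2 000-3 000 per well were treated with serially diluted compounds for 7 days at 37° C, 5% CO2. Growth was measured by WST-8 assay read at 450 nm after 1-4 h reagent incubation. Readings were normalized to DMSO-treated cells and IC50 values derived by nonlinear regression.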

[2] = Homo sapiens, KARPAS-422, 168 h, anti-proliferative IC50, Karpas 422 cell line, 7 day treatment, read-out: Karpas Cell line
[3] = anti-proliferative IC50, Karpas 422 cell line, 7 day treatment, read-out: Karpas Cell line
[4] = Homo sapiens, KARPAS-422, 168 h, read-out: Karpas Cell line (nM)
[5] = anti-proliferative IC50, Pfeiffer cell line, 7 day treatment, read-out: Pfeiffer Cell line
[6] = Homo sapiens, KARPAS-422, 168 h, anti-proliferative IC50 class, Karpas 422 cell line, 7 day treatment, read-out: Karpas Cell line
[7] = anti-proliferative IC50 class, Pfeiffer cell line, 7 day treatment, read-out: Pfeiffer Cell line

| Compound | IC50 [1, 2] [nM] | IC50 (EED (1-441)-His protein) [nM] | IC50 (Pfeiffer cell line; [5]) [nM] | other results |
| --- | --- | --- | --- | --- |
| CCP(=O)(CC)c1ncn2c(NCc3c(F)ccc4c3CCO4)ncc(-c3ccc(S(C)(=O)=O)cc3)c12 [compound 122, diethyl(5-(((5-fluoro-2,3-dihydrobenzofuran-4-yl)methyl)amino)-8-(4-(methylsulfonyl)phenyl)imidazo[1,5-c]pyrimidin-1-yl)phosphine oxide] | > 100 | 0.31 | – | – |
| CCP(=O)(CC)c1ncn2c(NCc3c(F)ccc4c3CCO4)ncc(-c3ccc(C(F)(F)F)nc3)c12 [compound 120, diethyl(5-(((5-fluoro-2,3-dihydrobenzofuran-4-yl)methyl)amino)-8-(6-(trifluoromethyl)pyridin-3-yl)imidazo[1,5-c]pyrimidin-1-yl)phosphine oxide] | > 100 | 1.15 | – | – |
| CCP(=O)(CC)c1ncn2c(NCc3c(F)ccc4c3CCO4)ncc(-c3ccc(C)nc3C)c12 [compound 125, (8-(2,6-dimethylpyridin-3-yl)-5-(((5-fluoro-2,3-dihydrobenzofuran-4-yl)methyl)amino)imidazo[1,5-c]pyrimidin-1-yl)diethylphosphine oxide] | 91.7 | 27.6 | – | – |
| 7-fluoro-12-(((5-fluoro-2,3-dihydrobenzofuran-4- yl)methyl)amino)-4-(2-fluoroethyl)-4,5-dihydro-3H- 2,4,11,12a-tetraazabenzo[4,5]cycloocta[1,2,3- cd]inden-3-one [compound 79] | – | 1.61 | – | IC50 [1, 3]: 15.3 nM |
| 7-fluoro-12-(((5-fluoro-2,3-dihydrobenzofuran-4- yl)methyl)amino)-4-(2-fluoro-2-methylpropyl)-4,5- dihydro-3H-2,4,11,12a- tetraazabenzo[4,5]cycloocta[1,2,3-cd]inden-3-one [compound 78] | – | 3.23 | – | IC50 [1, 3]: 34.5 nM |
| Cc1ccc(-c2cnc(NCc3c(F)ccc4c3CCO4)n3cnc(P(C)(C)=O)c23)c(C)n1 [compound 123, (8-(2,6-dimethylpyridin-3-yl)-5-(((5-fluoro-2,3-dihydrobenzofuran-4-yl)methyl)amino)imidazo[1,5-c]pyrimidin-1-yl)dimethylphosphine oxide] | 22.9 | 4.74 | – | – |
| Cn1cc(-c2cnc(NCc3c(F)ccc4c3CCO4)n3cnc(S(C)(=O)=O)c23)cn1 [compound 106, N-((5-fluoro-2,3-dihydrobenzofuran-4-yl)methyl)-8-(1-methyl-1H-pyrazol-4-yl)-1-(methylsulfonyl)imidazo[1,5-c]pyrimidin-5-amine] | – | 0.556 | – | IC50 [1, 4]: 10.6 nM |
| CP(C)(=O)c1ncn2c(NCc3c(F)ccc4c3CCO4)ncc(-c3ccc(F)cc3)c12 [compound 118, (5-(((5-fluoro-2,3-dihydrobenzofuran-4-yl)methyl)amino)-8-(4-fluorophenyl)imidazo[1,5-c]pyrimidin-1-yl)dimethylphosphine oxide] | 28.4 | 0.27 | – | – |
| CC(F)(F)CN1Cc2cc(C(F)(F)F)ncc2-c2cnc(NCc3c(F)ccc4c3CCO4)n3cnc(c23)C1=O [compound 82, 4-(2,2-difluoropropyl)-12-(((5-fluoro-2,3-dihydrobenzofuran-4-yl)methyl)amino)-7-(trifluoromethyl)-4,5-dihydro-3H-2,4,8,11,12a-pentaazabenzo[4,5]cycloocta[1,2,3-cd]inden-3-one] | 3.51 | – | 0.074 | – |
| O=C1NCc2cc(F)ccc2-c2cnc(NCc3c(F)ccc4c3CCO4)n3cnc1c23 [compound 17, 7-fluoro-12-(((5-fluoro-2,3-dihydrobenzofuran-4-yl)methyl)amino)-4,5-dihydro-3H-2,4,11,12a-tetraazabenzo[4,5]cycloocta[1,2,3-cd]inden-3-one] | 20.5 | – | 4.17 | – |
| O=C1c2ncn3c(NCc4c(F)ccc5c4CCO5)ncc(c23)-c2ccc(C(F)(F)F)nc2CN1CC(F)F [E 8, 4-(2,2-difluoroethyl)-12-(((5-fluoro-2,3-dihydrobenzofuran-4-yl)methyl)amino)-7-(trifluoromethyl)-4,5-dihydro-3H-2,4,6,11,12a-pentaazabenzo[4,5]cycloocta[1,2,3-cd]inden-3-one] | – | – | – | IC50 [1, 6]: < 10 nM; IC50 (Pfeiffer cell line; [7]): < 10 nM |
| CN1Cc2nc(C(F)(F)F)ccc2-c2cnc(NCc3c(F)ccc4c3CCO4)n3cnc(c23)C1=O [compound 33, 12-(((5-fluoro-2,3-dihydrobenzofuran-4-yl)methyl)amino)-4-methyl-7-(trifluoromethyl)-4,5-dihydro-3H-2,4,6,11,12a-pentaazabenzo[4,5]cycloocta[1,2,3-cd]inden-3-one] | 1.11 | – | 0.22 | – |
| CN1CCC(CN2Cc3nc(C(F)(F)F)ccc3-c3cnc(NCc4c(F)ccc5c4CCO5)n4cnc(c34)C2=O)CC1 [compound 42, 12-(((5-fluoro-2,3-dihydrobenzofuran-4-yl)methyl)amino)-4-((1-methylpiperidin-4-yl)methyl)-7-(trifluoromethyl)-4,5-dihydro-3H-2,4,6,11,12a-pentaazabenzo[4,5]cycloocta[1,2,3-cd]inden-3-one] | 4.01 | – | 4.19 | – |
| Fc1ccc2c(c1CNc1ncc3c4c(ncn14)COCc1ncccc1-3)CCO2 [Cpd. No. 2, N-((5-fluoro-2,3-dihydrobenzofuran-4-yl)methyl)-3H,5H-4-oxa-2,6,11,12a-tetraazabenzo[4,5]cycloocta[1,2,3-cd]inden-12-amine] | > 100 | – | > 100 | – |
| CCc1ccc2c(n1)CN(CC(C)(F)F)C(=O)c1ncn3c(NCc4c(F)ccc5c4CCO5)ncc-2c13 [E 16, 4-(2,2-difluoropropyl)-7-ethyl-12-(((5-fluoro-2,3-dihydrobenzofuran-4-yl)methyl)amino)-4,5-dihydro-3H-2,4,6,11,12a-pentaazabenzo[4,5]cycloocta[1,2,3-cd]inden-3-one] | – | – | – | IC50 [1, 6]: < 10 nM; IC50 (Pfeiffer cell line; [7]): < 10 nM |
| CCc1ccc2c(n1)CN(CC(F)F)C(=O)c1ncn3c(NCc4c(F)ccc5c4CCO5)ncc-2c13 [E 13, 4-(2,2-difluoroethyl)-7-ethyl-12-(((5-fluoro-2,3-dihydrobenzofuran-4-yl)methyl)amino)-4,5-dihydro-3H-2,4,6,11,12a-pentaazabenzo[4,5]cycloocta[1,2,3-cd]inden-3-one] | – | – | – | IC50 [1, 6]: < 10 nM; IC50 (Pfeiffer cell line; [7]): < 10 nM |
| CS(=O)(=O)c1ccc(-c2cnc(NCc3c(F)ccc4c3CCO4)n3cnc(S(C)(=O)=O)c23)cc1 [compound 100, N-((5-fluoro-2,3-dihydrobenzofuran-4-yl)methyl)-1-(methylsulfonyl)-8-(4 (methylsulfonyl)phenyl)imidazo[1,5-c]pyrimidin-5-amine] | – | – | – | IC50 [1, 4]: 0.26 nM; IC50 (Pfeiffer cell line; Pfeiffer, read-out: Pfeiffer Cell line (nM)): 1.05 nM |
| O=C1c2ncn3c(NCc4c(F)ccc5c4CCO5)ncc(c23)-c2ccc(C3CC3)nc2CN1CC(F)(F)F [E 14, 7-cyclopropyl-12-(((5-fluoro-2,3-dihydrobenzofuran-4-yl)methyl)amino)-4-(2,2,2-trifluoroethyl)-4,5-dihydro-3H-2,4,6,11,12a-pentaazabenzo[4,5]cycloocta[1,2,3-cd]inden-3-one] | – | – | – | IC50 [1, 6]: < 10 nM; IC50 (Pfeiffer cell line; [7]): < 10 nM |
| O=S1(=O)CCc2cc(F)ccc2-c2cnc(NCc3c(F)ccc4c3CCO4)n3cnc1c23 [compound 96, 7-fluoro-12-(((5-fluoro-2,3-dihydrobenzofuran-4-yl)methyl)amino)-4,5-dihydro-3-thia-2,11,12a-triazabenzo[4,5]cycloocta[1,2,3-cd]indene 3,3-dioxide] | 21.2 | – | 0.056 | – |
